Reference: ChEMBL document CHEMBL6109180, “De Novo-Designed APC/C Inhibitors Provide a Rationale for Targeting RING-Type E3 Ubiquitin Ligases” (J Med Chem, 2025)
Active and inactive are the calls of the source. The rule behind the calls is not given here. Numbered stars: 1 amine (or outer) side, 2 acyl side, 3 side chain; on linkers, the order of the positions; unused ones are H or OH. Bridge positions count the residues as written; N and C are the ends. Square brackets hold non-standard residues; d marks the D form. Peptide text beside a SMILES is read from it. X2 = C[C@@](CCCCC=[*:3])(N[*:1])C(=O)[*:2]; R8 = C=CCCCCCC[C@@](C)(N)C(=O)O; S5 = C=CCCC[C@](C)(N)C(=O)O; Pra = C#CC[C@H](N)C(=O)O

Experiments:
TERT-RPE1 = assay: Effect on time length of mitosis in human RPE-1 cells at 50 uM measured for 10 to 24 hrs by bright field microscopy; type: functional, cell-based; conditions: time 10-24 hrs
HeLa [1] = assay: (§1) Inhibition of recombinant APC/C/cdc20 (unknown origin) in metaphase-synchronized human HeLa cells co-expressing GST-tagged UBA1/UBE2C/methylated ubiquitin using RD680-labeled securin as substrate at 100 uM measured after 45 mins in presence of ATP by immuno-precipitation method; type: cell-based
HeLa [2] = assay: Inhibition of recombinant APC/C/cdc20 (unknown origin) in metaphase-synchronized human HeLa cells co-expressing GST-tagged UBA1/UBE2D1/methylated ubiquitin using RD680-labeled securin as substrate at 100 uM measured after 45 mins in presence of ATP by immuno-precipitation method; type: cell-based
[3] = target: Anaphase-promoting complex subunit 11 (Homo sapiens) (UniProt Q9NYG5); assay: Binding affinity to APC11 (unknown origin) assessed as binding free energy
Chain of Anaphase-promoting complex subunit 11 (Homo sapiens) (Q9NYG5 whole entry, one chain of several): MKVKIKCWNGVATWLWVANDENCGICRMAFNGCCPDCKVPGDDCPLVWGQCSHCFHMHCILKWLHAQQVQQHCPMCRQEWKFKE

[4] = Drug localization in human HeLa cells assessed as punctate pattern formation at 50 uM incubated for 10 hrs by AF488 dye based analysis; type: ADME, cell-based
HeLa [5] = assay: as §1, with “substrate assessed as maximum inhibition” for “substrate”, “15” for “45”; type: cell-based
[6] = target: Anaphase-promoting complex subunit 11 (Homo sapiens) (UniProt Q9NYG5); assay: Binding affinity to APC11 in asynchronously growing human HeLa cells incubated for 30 mins by pull down assay; type: cell-based
[7] = target: E3 ubiquitin-protein ligase Mdm2 (Homo sapiens) (UniProt Q00987); assay: Binding affinity to MDM2 in asynchronously growing human HeLa cells incubated for 30 mins by pull down assay; type: cell-based
Chain of E3 ubiquitin-protein ligase Mdm2 (Homo sapiens) (Q00987 whole entry, looked up): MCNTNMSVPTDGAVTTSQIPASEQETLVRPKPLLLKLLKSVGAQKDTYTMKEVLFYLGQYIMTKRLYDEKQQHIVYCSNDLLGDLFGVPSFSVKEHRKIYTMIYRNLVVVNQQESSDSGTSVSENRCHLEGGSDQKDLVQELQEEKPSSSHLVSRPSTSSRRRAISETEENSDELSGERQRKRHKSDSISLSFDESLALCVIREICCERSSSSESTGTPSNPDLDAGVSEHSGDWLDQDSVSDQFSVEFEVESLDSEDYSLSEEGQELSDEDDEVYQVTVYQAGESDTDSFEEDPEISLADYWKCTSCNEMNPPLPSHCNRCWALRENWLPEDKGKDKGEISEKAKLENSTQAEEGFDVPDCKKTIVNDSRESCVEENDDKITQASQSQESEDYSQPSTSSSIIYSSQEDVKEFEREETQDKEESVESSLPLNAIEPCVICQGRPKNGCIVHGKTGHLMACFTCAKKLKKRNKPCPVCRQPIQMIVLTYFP

[8] = target: E3 ubiquitin-protein ligase CBL (Homo sapiens) (UniProt P22681); assay: Binding affinity to c-CBL in asynchronously growing human HeLa cells incubated for 30 mins by pull down assay; type: cell-based

Row | deltaG [3] | Structure (SMILES) | inhibition (HeLa [1]) | inhibition (HeLa [2]) | further results
1 | – | CC[C@H](C)[C@@H]1NC(=O)[C@H](CCC(=O)O)NC(=O)[C@H](CC(C)C)NC(=O)[C@@H](CCCCN)NC(=O)[C@](C)(NC(=O)[C@H](Cc2c[nH]c3ccccc23)NC(=O)[C@H](Cc2c[nH]c3ccccc23)NC(=O)[C@H](CCC(=O)O)NC(C)=O)CCCCCC/C=C\CCC[C@@](C)(C(=O)N[C@@H](CCCNC(=N)N)C(=O)N[C@@H](CCCNC(=N)N)C(=O)N[C@@H](C)C(N)=O)NC(=O)[C@H](CCCNC(=N)N)NC(=O)[C@H](CCC(N)=O)NC1=O | Active; Compound Exerted Better Inhibitory Effect Than Tame | – | Activity (TERT-RPE1): No effect
2 | -19.6 kcal/mol | CC(=O)N[C@H]1CSSC[C@@H](C(=O)N[C@@H](CCC(=O)O)C(=O)N[C@@H](Cc2c[nH]c3ccccc23)C(=O)N[C@@H](CCCNC(=N)N)C(=O)N[C@@H](Cc2ccc(O)cc2)C(N)=O)NC(=O)[C@H](Cc2cnc[nH]2)NC(=O)[C@H](Cc2c[nH]c3ccccc23)NC(=O)[C@H](CCC(N)=O)NC(=O)[C@H](CO)NC(=O)[C@@H]2CCCN2C(=O)CNC(=O)[C@H](C)NC(=O)[C@H](CCC(=O)O)NC1=O (Ac-CEAGPSQWHCEWRY-NH2; disulfide 1-10) | – | inactive | –
3 | -18.3 kcal/mol | CC(=O)N[C@H]1CSSC[C@@H](C(=O)N[C@H](C(=O)N[C@@H](Cc2c[nH]c3ccccc23)C(=O)N[C@@H](CCCNC(=N)N)C(=O)N[C@@H](Cc2ccc(O)cc2)C(N)=O)[C@@H](C)O)NC(=O)[C@H](Cc2cnc[nH]2)NC(=O)[C@H](Cc2c[nH]c3ccccc23)NC(=O)[C@H](CCC(N)=O)NC(=O)[C@H](CO)NC(=O)[C@@H]2CCCN2C(=O)CNC(=O)[C@H](C)NC(=O)[C@H](CCC(=O)O)NC1=O (Ac-CEAGPSQWHCTWRY-NH2; disulfide 1-10) | – | inactive | –
4 | – | CC(=O)N[C@@H](CCC(=O)O)C(=O)N[C@@H](Cc1c[nH]c2ccccc12)C(=O)N[C@@H](Cc1c[nH]c2ccccc12)C(=O)N[C@]1(C)CCCCCC/C=C\CCC[C@@](C)(C(=O)N[C@@H](CCCNC(=N)N)C(=O)N[C@@H](CCCNC(=N)N)C(=O)N[C@@H](C)C(N)=O)NC(=O)[C@H](CCCNC(=N)N)NC(=O)[C@H](CCC(N)=O)NC(=O)[C@H](CC(C)C)NC(=O)[C@H](CCC(=O)O)NC(=O)[C@H](CC(C)C)NC(=O)[C@H](CCCCN)NC1=O (Ac-EWW[R8]KLELQR[S5]RRA-NH2; staple (Z) 4-11) | Active; Compound Exerted Better Inhibitory Effect Than Tame | – | –
5 | – | C#CC[C@H](NC(=O)[C@H](Cc1c[nH]c2ccccc12)NC(=O)[C@H](CCC(=O)O)NC(C)=O)C(=O)N[C@]1(C)CCCCCC/C=C\CCCC[C@@](C)(C(=O)N[C@@H](CCCNC(=N)N)C(=O)N[C@@H](CCCNC(=N)N)C(=O)N[C@@H](C)C(N)=O)NC(=O)[C@H](CCCNC(=N)N)NC(=O)[C@H](CCC(N)=O)NC(=O)[C@H]([C@@H](C)CC)NC(=O)[C@H](CCC(=O)O)NC(=O)[C@H](CCCCN)NC(=O)[C@H]([C@@H](C)CC)NC1=O (Ac-EW[Pra][R8]IKEIQR[X2]RRA-NH2; staple (Z) 4-11) | – | – | Drug uptake [4]: Active
6 | -21.1 kcal/mol | CC(=O)N[C@@H](CCCNC(=N)N)C(=O)N[C@H]1CSSC[C@@H](C(=O)N[C@@H](CCCNC(=N)N)C(N)=O)NC(=O)[C@H](Cc2c[nH]c3ccccc23)NC(=O)[C@H](Cc2ccccc2)NC(=O)[C@H]([C@@H](C)O)NC(=O)[C@H](CCC(=O)O)NC(=O)[C@@H]2CCCN2C(=O)CNC(=O)[C@H](Cc2c[nH]c3ccccc23)NC(=O)[C@H](Cc2cnc[nH]2)NC1=O (Ac-RCHWGPETFWCR-NH2; disulfide 2-11) | Active | Active | –
7 | -25.6 kcal/mol | CC(=O)N[C@@H](CCCNC(=N)N)C(=O)N[C@H]1CSSC[C@@H](C(=O)N[C@@H](CCCNC(=N)N)C(N)=O)NC(=O)[C@H](Cc2c[nH]c3ccccc23)NC(=O)[C@H](Cc2ccccc2)NC(=O)[C@H]([C@@H](C)O)NC(=O)[C@H](CCCNC(=N)N)NC(=O)[C@@H]2CCCN2C(=O)CNC(=O)[C@H](Cc2c[nH]c3ccccc23)NC(=O)[C@H](Cc2cnc[nH]2)NC1=O (Ac-RCHWGPRTFWCR-NH2; disulfide 2-11) | Active | Active | inhibition (HeLa [5]): Active
8 | -24.2 kcal/mol | CC(=O)N[C@@H](CCCNC(=N)N)C(=O)N[C@H]1CSSC[C@@H](C(=O)N[C@@H](CCCNC(=N)N)C(N)=O)NC(=O)[C@H](Cc2c[nH]c3ccccc23)NC(=O)[C@H](Cc2ccccc2)NC(=O)[C@H]([C@@H](C)O)NC(=O)[C@H](CCC(=O)O)NC(=O)[C@@H]2CCCN2C(=O)CNC(=O)[C@H](Cc2c[nH]c3ccccc23)NC(=O)[C@H](CO)NC1=O (Ac-RCSWGPETFWCR-NH2; disulfide 2-11) | Active | Active | –
9 | – | CC(=O)N[C@@H](CCCNC(=N)N)C(=O)N[C@@H](CCCNC(=N)N)C(=O)N[C@@H](CCCCN)C(=O)N[C@]1(C)CCCCCC/C=C\CCC[C@@](C)(C(=O)N[C@H](C(=O)N[C@@H](CCCNC(=N)N)C(=O)N[C@@H](Cc2ccc(O)cc2)C(N)=O)C(C)C)NC(=O)[C@H](CCCNC(=N)N)NC(=O)[C@H](C)NC(=O)[C@H](CCCNC(=N)N)NC(=O)[C@H](CCC(=O)O)NC(=O)[C@H](CCC(N)=O)NC(=O)[C@H](C)NC1=O (Ac-RRK[R8]AQERAR[S5]VRY-NH2; staple (Z) 4-11) | inactive | – | –
10 | – | CC[C@H](C)[C@@H]1NC(=O)[C@@](C)(NC(=O)[C@H](CCC(N)=O)NC(=O)[C@@H]2CCCN2C(=O)[C@H](Cc2c[nH]c3ccccc23)NC(=O)[C@H](CCCNC(=N)N)NC(C)=O)CCC/C=C/CCC[C@@](C)(C(=O)N[C@@H](CCC(N)=O)C(=O)N[C@H](C(=O)N[C@@H](CCCNC(=N)N)C(=O)N[C@@H](Cc2c[nH]c3ccccc23)C(=O)N[C@@H](Cc2c[nH]c3ccccc23)C(N)=O)C(C)C)NC(=O)[C@H](CC(=O)O)NC(=O)[C@H](CCCCN)NC1=O (Ac-RWPQ[S5]IKD[S5]QVRWW-NH2; staple (E) 5-9) | Active; Compound Exerted Better Inhibitory Effect Than Tame | – | Activity (TERT-RPE1): No effect
11 | – | CC(=O)N[C@@H](CCCNC(=N)N)C(=O)N[C@@H](Cc1c[nH]c2ccccc12)C(=O)N1CCC[C@H]1C(=O)N[C@@H](CCC(N)=O)C(=O)N[C@@]1(C)CCC/C=C/CCC[C@@](C)(C(=O)N[C@@H](CCC(N)=O)C(=O)N[C@H](C(=O)N[C@@H](CCCNC(=N)N)C(=O)N[C@@H](CCCNC(=N)N)C(=O)N[C@@H](Cc2c[nH]c3ccccc23)C(N)=O)C(C)C)NC(=O)[C@H](CC(=O)O)NC(=O)[C@H](Cc2c[nH]c3ccccc23)NC(=O)[C@H](CCCCN)NC1=O (Ac-RWPQ[S5]KWD[S5]QVRRW-NH2; staple (E) 5-9) | Active; Compound Exerted Better Inhibitory Effect Than Tame | – | Activity (TERT-RPE1): No effect
12 | – | C#CC[C@H](NC(=O)[C@@H]1CCCN1C(=O)[C@H](Cc1c[nH]c2ccccc12)NC(=O)[C@H](CCCNC(=N)N)NC(C)=O)C(=O)N[C@@]1(C)CCC/C=C/CCC[C@@](C)(C(=O)N[C@@H](CCC(N)=O)C(=O)N[C@H](C(=O)N[C@@H](CCCNC(=N)N)C(=O)N[C@@H](CCCNC(=N)N)C(=O)N[C@@H](Cc2c[nH]c3ccccc23)C(N)=O)C(C)C)NC(=O)[C@H](CC(=O)O)NC(=O)[C@H](Cc2c[nH]c3ccccc23)NC(=O)[C@H](CCCCN)NC1=O (Ac-RWP[Pra][S5]KWD[S5]QVRRW-NH2; staple (E) 5-9) | – | – | Activity [6]: Active; Drug uptake [4]: Active; Activity (TERT-RPE1): No effect; Activity [7]: inactive; Activity [8]: inactive
13 | -29.4 kcal/mol | CC(=O)N[C@H](C(=O)N[C@@H](Cc1cnc[nH]1)C(=O)N[C@H]1CSSC[C@@H](C(=O)N[C@@H](CCC(N)=O)C(=O)N[C@@H](CCCNC(=N)N)C(=O)N[C@H](C(N)=O)C(C)C)NC(=O)[C@H](CC(N)=O)NC(=O)[C@H](Cc2c[nH]c3ccccc23)NC(=O)[C@H](CCCNC(=N)N)NC(=O)[C@H](Cc2c[nH]c3ccccc23)NC(=O)[C@H]([C@@H](C)O)NC(=O)[C@H](CCC(=O)O)NC(=O)[C@@H]2CCCN2C(=O)[C@H](CC(=O)O)NC(=O)[C@H](CC(=O)O)NC1=O)[C@@H](C)O (Ac-THCDDPETWRWNCQRV-NH2; disulfide 3-13) | Active | Active | inhibition (HeLa [5]): Active
14 | -29.4 kcal/mol | C[C@@H](O)[C@H](NC(=O)[C@H](CC(=O)O)NC(=O)CN)C(=O)N[C@H]1CSSC[C@@H](C(=O)N[C@@H](CCC(N)=O)C(=O)N[C@@H](CCCNC(=N)N)C(=O)N[C@@H](Cc2cnc[nH]2)C(=O)O)NC(=O)[C@H](CC(N)=O)NC(=O)[C@H](Cc2c[nH]c3ccccc23)NC(=O)[C@H](CCCNC(=N)N)NC(=O)[C@H](Cc2c[nH]c3ccccc23)NC(=O)[C@H]([C@@H](C)O)NC(=O)[C@H](CCC(=O)O)NC(=O)[C@@H]2CCCN2C(=O)[C@H](CC(=O)O)NC(=O)[C@H](CC(=O)O)NC1=O (H-GDTCDDPETWRWNCQRH-OH; disulfide 4-14) | Active | Active | –
15 | -19.4 kcal/mol | C[C@@H](O)[C@H](NC(=O)[C@H](CCCNC(=N)N)NC(=O)[C@@H]1CSSC[C@H](NC(=O)[C@H](CCCNC(=N)N)NC(=O)CN)C(=O)N[C@@H](Cc2cnc[nH]2)C(=O)N[C@@H](Cc2c[nH]c3ccccc23)C(=O)NCC(=O)N2CCC[C@H]2C(=O)N[C@@H](CCC(=O)O)C(=O)N[C@@H]([C@@H](C)O)C(=O)N[C@@H](Cc2ccccc2)C(=O)N[C@@H](Cc2c[nH]c3ccccc23)C(=O)N1)C(=O)O (H-GRCHWGPETFWCRT-OH; disulfide 3-12) | – | Active | –
